Results on one compound are retold here after PMC7226045, “Ensartinib (X-396) Effectively Modulates Pharmacokinetic Resistance Mediated by ABCB1 and ABCG2 Drug Efflux Transporters and CYP3A4 Biotransformation Enzyme” (Cancers, 2020).

The IC50 is the concentration at which inhibition is half-maximal.

The target in data set [1] is T1, ABCG2 (Homo sapiens, UniProt Q9UNQ0).
T1 construct: expressed in transfected cells; host or cells: MDCKII-ABCG2 (from Dr. Alfred Schinkel, The Netherlands Cancer Institute)
T1 sequence (Q9UNQ0 1-655): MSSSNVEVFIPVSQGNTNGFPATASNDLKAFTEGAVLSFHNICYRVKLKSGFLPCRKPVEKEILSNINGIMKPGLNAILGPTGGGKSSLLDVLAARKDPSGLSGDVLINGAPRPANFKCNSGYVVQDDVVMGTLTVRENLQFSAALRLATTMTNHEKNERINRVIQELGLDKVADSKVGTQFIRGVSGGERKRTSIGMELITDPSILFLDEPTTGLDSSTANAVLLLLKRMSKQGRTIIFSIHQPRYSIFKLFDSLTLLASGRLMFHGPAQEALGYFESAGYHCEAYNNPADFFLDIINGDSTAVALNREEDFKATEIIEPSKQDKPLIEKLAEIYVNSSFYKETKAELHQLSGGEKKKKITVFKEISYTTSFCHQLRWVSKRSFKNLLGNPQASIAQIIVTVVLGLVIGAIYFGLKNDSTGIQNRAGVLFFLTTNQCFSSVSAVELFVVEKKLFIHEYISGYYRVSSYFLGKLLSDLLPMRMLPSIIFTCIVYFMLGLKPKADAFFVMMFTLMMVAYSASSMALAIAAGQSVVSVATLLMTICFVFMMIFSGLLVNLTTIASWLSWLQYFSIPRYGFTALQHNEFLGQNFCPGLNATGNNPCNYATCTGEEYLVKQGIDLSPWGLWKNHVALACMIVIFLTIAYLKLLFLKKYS
Kind of data set: mitoxantrone accumulation assay (flow cytometry) in MDCKII-ABCG2 cells. The format is cell-based. The note with it: 1 µM mitoxantrone, 1 h, read-out: IC50, inhibition of ABCG2 (mitoxantrone accumulation). The protocol: The flow-cytometric inhibitory assay with daunorubicin and mitoxantrone was performed with minor modifications as described previously. MDCKII-par, MDCKII-ABCB1, MDCKII-ABCG2, and MDCKII-ABCC1 cell lines were seeded at densities of 22.0 × 10^4, 15.0 × 10^4, 25.0 × 10^4, and 22.0 × 10^4 cells/well, respectively, on a 12-well plate and then incubated for 24 h to reach approximately 70–80% confluence. Further steps including cell washing, the preparation of drug/model inhibitor dilutions, and their addition to cells were performed as described above. After the 10 min pre-incubation period, 2 µM daunorubicin (a substrate of ABCB1/ABCC1) or 1 µM mitoxantrone (ABCG2 substrate) were promptly added to all wells other than those containing background samples, then the plate was incubated for 1 h under standard conditions. The plates were subsequently placed on ice, the cells were washed twice with ice-cold 1× PBS, and 10× trypsin without phenol red was added. After complete trypsinization, the cells were vigorously resuspended in ice-cold 1× PBS containing 2% FBS. Samples were then transferred into test-tubes and kept on ice until their fluorescence could be measured using a flow cytometer (BD FACSCanto II, Allschwil, Switzerland). The excitation/emission wavelengths for daunorubicin and mitoxantrone were 490/565 and 640/670 nm, respectively.
A general note: Flow cytometry measures light scatter and fluorescence of single cells or particles in a stream.

For data set [2], the target named is T1, ABCG2. As to the kind of experiment: MDCKII monolayer transport assay, MDCKII-ABCG2. The format is in vitro ADME. The note with it: dog, 1 µM ensartinib, read-out: transport ratio (r), BA/AB. The protocol:
Transport assays were performed on microporous polycarbonate membrane filters (3 µm pore size, 24 mm diameter, Transwell 3414; Costar, Corning, NY, USA) using MDCKII parental as well as ABCB1-, ABCG2-, and ABCC1-overexpressing MDCKII cells. The cells were seeded at a density of 1.5 × 10^6 cells per insert and cultured to full confluence for 7 days with media exchanges on the second and fourth days. Before the start of the transport experiments, inserts were washed with 1 × PBS on both the apical and basal sides. The cells were then preincubated in Opti-MEM with or without model inhibitors (1 µM LY335979, 1 µM Ko143, or 25 µM MK-571). […] Ensartinib levels in samples were measured by UHPLC-MS/MS (see below). […]
Samples from the monolayer transport assays (10 µL) were mixed with 100 µL of acetonitrile and 100 µL of methanol, vortexed for 15 min, and centrifuged at 14,500 rpm for 3 min. […] The MS source parameters were set to the following: drying gas, 320 °C, flow rate 10 l/min; sheath gas, 400 °C at 12 l/min; nebulizer pressure 25 psi; capillary voltage 4000 V; nozzle voltage 0 V. Transitions of [M+H]^+ ions were detected using a dwell time of 150 ms, a cell acceleration of 4 V, and fragmentor voltages of 137 V for 547→357, 257 and 120 transitions (corresponding to collision energies of 16, 32, and 56 V).

`C[C@@H]1CN(C(=O)c2ccc(NC(=O)c3cc(O[C@H](C)c4c(Cl)ccc(F)c4Cl)c(N)nn3)cc2)C[C@H](C)N1` [ensartinib, Ensartinib]: in data set [1], the IC50 came to 28.3 µM. The efflux ratio at 4 h, 1 µM in data set [2] stood at 1.15.
